# In patent publication US9546173B2 (Novartis AG, priority 2012, dated 2017):
# pIC50: −log10 of the molar value.
# Target: activated ERK2 (Homo sapiens (Human), UniProt P28482)
# Test: Activated ERK2 kinase assay (AlphaScreen, ERKtide peptide phosphorylation)
# Type: biochemical
# Settings: […] ERK2, 200 nM ERKtide peptide, 35 μM ATP, 30 min preincubation; read-out: ERK2 IC50
# Excerpt: Production of Activated ERK2 Protein:
# Activated ERK2 protein was generated in insect cells by co-expression with a constitutively active form of MEK1. The ERK2 protein was expressed and purified as a nHis-PreScission-ERK2 tagged protein and then proteolytically processed to the full-length wild-type protein. […] Double-phosphorylated ERK2 protein was purified from the mixture by mono-Q column separation.
# Activated ERK2 Kinase Assay:
# A 16-point, half-log dilution series of compounds at 41× final concentration was used for generating IC50 curves. Compound dilution series were prepared in 100% DMSO. ERK2 was preincubated with compounds for 30 minutes at ambient temperature. Reaction was initiated by addition of a substrate cocktail of ERKtide peptide and ATP and was allowed to proceed for 2-3 hours at ambient temperature. Reaction was terminated by addition of 10 μL of a 2× stop buffer consisting of 100 mM Tris-Cl [pH 7.5], 25 mM EDTA, 0.01% Tween 20, 10 μg/mL of AlphaScreen Protein A Acceptor Beads, 10 μg/mL of Streptavidin Donor Beads (PerkinElmer, Waltham, Mass.), and 1.4 μg/mL phospho-EGF Receptor (Thr669) antibody (Cat #3056, Cell Signaling Technology, Danvers, Mass.). Terminated reactions were read, after overnight incubation in the dark, on an EnVision Multilabel Plate Reader (PerkinElmer, Waltham, Mass.), with excitation and emission wavelengths set to 680 nm and 570 nm, respectively. IC50 values were determined using a four-parameter fit.
# activated ERK2, sequence (P28482 whole entry): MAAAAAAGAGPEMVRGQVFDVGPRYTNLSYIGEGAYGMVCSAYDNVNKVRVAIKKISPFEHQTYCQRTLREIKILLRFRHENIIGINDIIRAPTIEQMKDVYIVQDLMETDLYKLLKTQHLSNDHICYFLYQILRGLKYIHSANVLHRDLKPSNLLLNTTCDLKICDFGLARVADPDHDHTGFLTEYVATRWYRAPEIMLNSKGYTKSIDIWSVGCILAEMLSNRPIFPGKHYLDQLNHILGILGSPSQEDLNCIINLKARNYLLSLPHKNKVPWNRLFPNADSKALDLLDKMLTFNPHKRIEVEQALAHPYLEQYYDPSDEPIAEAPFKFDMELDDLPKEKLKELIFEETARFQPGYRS
row,pIC50,Compound
1,7.85,"CC1(C)c2cnc(NC3CCOCC3)nc2CN1C(=O)N[C@H](CO)c1ccccc1 [compound 1, (S)-N-(2-hydroxy-1-phenylethyl)-5,5-dimethyl-2-((tetrahydro-2H-pyran-4-yl)amino)-5H-pyrrolo[3,4-d]pyrimidine-6(7H)-carboxamide]"
2,8.40,"CC1(C)c2cnc(NC3CCOCC3)nc2CN1C(=O)N[C@H](CO)c1cccc(Cl)c1 [compound 2, (S)-N-(1-(3-chlorophenyl)-2-hydroxyethyl)-5,5-dimethyl-2-((tetrahydro-2H-pyran-4-yl)amino)-5H-pyrrolo[3,4-d]pyrimidine-6(7H)-carboxamide]"
3,6.05,"CC1(C)c2cnc(NC3CCOCC3)nc2CN1C(=O)NCc1cccnc1 [compound 3, 5,5-dimethyl-N-(pyridin-3-ylmethyl)-2-((tetrahydro-2H-pyran-4-yl)amino)-5H-pyrrolo[3,4-d]pyrimidine-6(7H)-carboxamide]"
4,7.74,"CC1(C)c2cnc(NC3CCOCC3)nc2CN1C(=O)NCc1cccc(S(C)(=O)=O)c1 [compound 4, 5,5-dimethyl-N-(3-(methylsulfonyl)benzyl)-2-((tetrahydro-2H-pyran-4-yl)amino)-5H-pyrrolo[3,4-d]pyrimidine-6(7H)-carboxamide]"
5,4.81,"CC1(C)c2cnc(NC3CCOCC3)nc2CN1C(=O)N[C@H]1CCCN(Cc2ccccc2F)C1 [compound 5, (S)-N-(1-(2-fluorobenzyl)piperidin-3-yl)-5,5-dimethyl-2-((tetrahydro-2H-pyran-4-yl)amino)-5H-pyrrolo[3,4-d]pyrimidine-6(7H)-carboxamide]"
6,5.63,"CC1(C)c2cnc(NC3CCOCC3)nc2CN1C(=O)N[C@H]1CCCNC1 [compound 6, (S)-5,5-dimethyl-N-(piperidin-3-yl)-2-((tetrahydro-2H-pyran-4-yl)amino)-5H-pyrrolo[3,4-d]pyrimidine-6(7H)-carboxamide]"
7,4.81,"CC1(C)c2cnc(NC3CCOCC3)nc2CN1C(=O)N[C@@H]1CCCNC1 [compound 7, (R)-5,5-dimethyl-N-(piperidin-3-yl)-2-((tetrahydro-2H-pyran-4-yl)amino)-5H-pyrrolo[3,4-d]pyrimidine-6(7H)-carboxamide]"
8,7.09,"CC1(C)c2cnc(NC3CCOCC3)nc2CN1C(=O)N[C@@H]1CCCN(Cc2ccccc2F)C1 [compound 8, (R)-N-(1-(2-fluorobenzyl)piperidin-3-yl)-5,5-dimethyl-2-((tetrahydro-2H-pyran-4-yl)amino)-5H-pyrrolo[3,4-d]pyrimidine-6(7H)-carboxamide]"
9,7.64,"CC1(C)c2cnc(NC3CCOCC3)nc2CN1C(=O)N[C@@H]1CC1c1ccccc1 (stereo partly drawn) [compound 9, 5,5-dimethyl-N-((1R)-2-phenylcyclopropyl)-2-((tetrahydro-2H-pyran-4-yl)amino)-5H-pyrrolo[3,4-d]pyrimidine-6(7H)-carboxamide]"
10,6.14,"CC1(C)c2cnc(NC3CCS(=O)(=O)CC3)nc2CN1C(=O)N[C@H](CO)c1ccccc1 [compound 10, (S)-2-((1,1-dioxidotetrahydro-2H-thiopyran-4-yl)amino)-N-(2-hydroxy-1-phenylethyl)-5,5-dimethyl-5H-pyrrolo[3,4-d]pyrimidine-6(7H)-carboxamide]"
11,6.84,"CC1(C)c2cnc(NC3CCC(F)(F)CC3)nc2CN1C(=O)N[C@H](CO)c1ccccc1 [compound 11, (S)-2-((4,4-difluorocyclohexyl)amino)-N-(2-hydroxy-1-phenylethyl)-5,5-dimethyl-5H-pyrrolo[3,4-d]pyrimidine-6(7H)-carboxamide]"
12,6.43,"CC1(C)c2cnc(NC3CCOC3)nc2CN1C(=O)N[C@H](CO)c1ccccc1 (stereo partly drawn) [compound 12, N-((S)-2-hydroxy-1-phenylethyl)-5,5-dimethyl-2-((tetrahydrofuran-3-yl)amino)-5H-pyrrolo[3,4-d]pyrimidine-6(7H)-carboxamide]"
13,8.10,"CC1(C)c2cnc(NC3CCOCC3)nc2CN1C(=O)NCc1cc(F)cc(Cl)c1 [compound 13, N-(3-chloro-5-fluorobenzyl)-5,5-dimethyl-2-((tetrahydro-2H-pyran-4-yl)amino)-5H-pyrrolo[3,4-d]pyrimidine-6(7H)-carboxamide]"
14,6.48,"CC1(C)c2cnc(NC3CCOCC3)nc2CN1C(=O)NCC1CCCCO1 (stereo not drawn) [compound 14, 5,5-dimethyl-N-((tetrahydro-2H-pyran-2-yl)methyl)-2-((tetrahydro-2H-pyran-4-yl)amino)-5H-pyrrolo[3,4-d]pyrimidine-6(7H)-carboxamide]"
15,6.07,"CC1(C)c2cnc(NC3CCOCC3)nc2CN1C(=O)NCC1CCCOC1 (stereo not drawn) [compound 15, 5,5-dimethyl-N-((tetrahydro-2H-pyran-3-yl)methyl)-2-((tetrahydro-2H-pyran-4-yl)amino)-5H-pyrrolo[3,4-d]pyrimidine-6(7H)-carboxamide]"
16,6.44,"CC1(C)c2cnc(NC3CCOCC3)nc2CN1C(=O)NCC1CCOCC1 [compound 16, 5,5-dimethyl-2-((tetrahydro-2H-pyran-4-yl)amino)-N-((tetrahydro-2H-pyran-4-yl)methyl)-5H-pyrrolo[3,4-d]pyrimidine-6(7H)-carboxamide]"
17,7.17,"CC1(C)c2cnc(NC3CCOCC3)nc2CN1C(=O)N[C@H](CO)C1CCCCC1 [compound 17, (S)-N-(1-cyclohexyl-2-hydroxyethyl)-5,5-dimethyl-2-((tetrahydro-2H-pyran-4-yl)amino)-5H-pyrrolo[3,4-d]pyrimidine-6(7H)-carboxamide]"
18,5.62,"CC1(C)c2cnc(NC3CCOCC3)nc2CN1C(=O)NC1CCOCC1 [compound 18, 5,5-dimethyl-N-(tetrahydro-2H-pyran-4-yl)-2-((tetrahydro-2H-pyran-4-yl)amino)-5H-pyrrolo[3,4-d]pyrimidine-6(7H)-carboxamide]"
19,7.68,"CC1(C)c2cnc(NC3CCOCC3)nc2CN1C(=O)NCc1cc(F)cc(F)c1 [compound 19, N-(3,5-difluorobenzyl)-5,5-dimethyl-2-((tetrahydro-2H-pyran-4-yl)amino)-5H-pyrrolo[3,4-d]pyrimidine-6(7H)-carboxamide]"
20,7.80,"CC1(C)c2cnc(NC3CCOCC3)nc2CN1C(=O)NCc1cccc(F)c1 [compound 20, N-(3-fluorobenzyl)-5,5-dimethyl-2-((tetrahydro-2H-pyran-4-yl)amino)-5H-pyrrolo[3,4-d]pyrimidine-6(7H)-carboxamide]"
21,8.22,"CC1(C)c2cnc(NC3CCOCC3)nc2CN1C(=O)NCc1cccc(Cl)c1 [compound 21, N-(3-chlorobenzyl)-5,5-dimethyl-2-((tetrahydro-2H-pyran-4-yl)amino)-5H-pyrrolo[3,4-d]pyrimidine-6(7H)-carboxamide]"
22,8.70,"C[C@@H](NC(=O)N1Cc2nc(NC3CCOCC3)ncc2C1(C)C)c1cccc(Cl)c1 [compound 22, (R)-N-(1-(3-chlorophenyl)ethyl)-5,5-dimethyl-2-((tetrahydro-2H-pyran-4-yl)amino)-5H-pyrrolo[3,4-d]pyrimidine-6(7H)-carboxamide]"
23,7.66,"CC1(C)c2cnc(NC3CCOCC3)nc2CN1C(=O)NCc1ccc(F)cc1 [compound 24, N-(4-fluorobenzyl)-5,5-dimethyl-2-((tetrahydro-2H-pyran-4-yl)amino)-5H-pyrrolo[3,4-d]pyrimidine-6(7H)-carboxamide]"
24,6.71,"CC1(C)c2cnc(NC3CCCOC3)nc2CN1C(=O)N[C@H](CO)c1ccccc1 (stereo partly drawn) [compound 25, N-((S)-2-hydroxy-1-phenylethyl)-5,5-dimethyl-2-((tetrahydro-2H-pyran-3-yl)amino)-5H-pyrrolo[3,4-d]pyrimidine-6(7H)-carboxamide]"
25,6.90,"CC1(C)c2cnc(NC3CCOCC3)nc2CN1C(=O)NC(c1ccccc1)C(F)(F)F (stereo not drawn) [compound 26, 5,5-dimethyl-2-((tetrahydro-2H-pyran-4-yl)amino)-N-(2,2,2-trifluoro-1-phenylethyl)-5H-pyrrolo[3,4-d]pyrimidine-6(7H)-carboxamide]"
26,6.69,"CN(Cc1ccccc1)C(=O)N1Cc2nc(NC3CCOCC3)ncc2C1(C)C [compound 27, N-benzyl-N,5,5-trimethyl-2-((tetrahydro-2H-pyran-4-yl)amino)-5H-pyrrolo[3,4-d]pyrimidine-6(7H)-carboxamide]"
27,8.00,"CC1(C)c2cnc(NC3CCOCC3)nc2CN1C(=O)NCc1ccc(Cl)cc1 [compound 28, N-(4-chlorobenzyl)-5,5-dimethyl-2-((tetrahydro-2H-pyran-4-yl)amino)-5H-pyrrolo[3,4-d]pyrimidine-6(7H)-carboxamide]"
28,6.80,"CC1(C)c2cnc(NC3CCOCC3)nc2CN1C(=O)NCc1ccccc1Cl [compound 29, N-(2-chlorobenzyl)-5,5-dimethyl-2-((tetrahydro-2H-pyran-4-yl)amino)-5H-pyrrolo[3,4-d]pyrimidine-6(7H)-carboxamide]"
29,7.31,"CC1(C)c2cnc(NC3CCOCC3)nc2CN1C(=O)NCc1nc2ccccc2s1 [compound 30, N-(benzo[d]thiazol-2-ylmethyl)-5,5-dimethyl-2-((tetrahydro-2H-pyran-4-yl)amino)-5H-pyrrolo[3,4-d]pyrimidine-6(7H)-carboxamide]"

# Same assay, conditions: comparative example text; read-out: IC50 on ERK2
row,pIC50,Compound
1,6.44,"C[C@@H](NC(=O)N1Cc2cnc(NC3CCOCC3)nc2C1)c1ccccc1 [Comparative Example, reference compound]"
